From patent US11865098B1, “Methods and compositions for treating excessive sleepiness” (Axsome Malta Ltd., priority 2017, dated 2024)

Test system: patients with narcolepsy type 1 or type 2
Test: MWT, 12-week phase 3 study in narcolepsy
Format: in vivo, human
Protocol: The MWT is an objective test used to measure how alert a subject is during the day. The test consists of four sleep trials with two hours in between the trials. The first trial is performed 1.5-3 hours after the subject's normal wake-up time. Sensors are placed on the head, face, and chin to detect when the subject is asleep and awake during the test. The subject sits quietly in bed with his or her back and head supported by a pillow and is asked to sit still and look straight ahead while trying to stay awake as long as possible. Each trial lasts 40 minutes or until the subject is asleep for 90 seconds. Between trials, the subject stays out of bed and occupies himself or herself to remain awake. Falling asleep in an average of less than eight minutes is considered abnormal. About 40-60% of subjects with normal sleep stay awake for the entire 40 minutes of all four trials.
The study was a 12-week, double-blind, randomized, placebo-controlled, parallel-group study. Patients were randomized (1:1:1:1) to receive placebo or APC 75, 150, or 300 mg; randomization was stratified by the presence or absence of cataplexy.
Key inclusion criteria included adults 18-75 years old, inclusive, with a diagnosis of narcolepsy type 1 or type 2 according to ICSD-3 (American Academy of Sleep Medicine. The International Classification of Sleep Disorders—Third Edition (ICSD-3). Darien, IL: American Academy of Sleep Medicine; 2014) or DSM-5 (American Psychiatric Association. Diagnostic and Statistical Manual of Mental Disorders Fifth Edition (DSM-5). Arlington, VA: American Psychiatric Association; 2013) criteria, baseline mean sleep latency <25 minutes on the first 4 trials of a 5-trial, 40-minute Maintenance of Wakefulness Test (MWT) and baseline Epworth Sleepiness Scale (ESS) (Johns, Sleep 14(6):540 (1991)) score ≥10, usual nightly total sleep time ≥6 hours, and body mass index between 18 and 45 kg/m^2.
Co-primary endpoints were change from baseline to week 12 in MWT mean sleep latency and ESS score. The key secondary endpoint was the percentage of patients who reported improvement on the Patient Global Impression of Change (PGI-C) (Guy, ECDEU assessment manual for psychopharmacology, revised. US Department of Health, Education, and Welfare publication (ADM 76-338). Rockville, MD: National Institute of Mental Health; 1976) at week 12. Other secondary and exploratory endpoints included changes on function and quality-of-life and changes in the number of cataplexy attacks per week. Safety evaluation included adverse events, laboratory tests, and vital signs.
Efficacy analyses were based on the modified intent-to-treat population (mITT), defined as all patients who were randomized, received at least 1 dose of study drug, and had baseline and at least 1 post-baseline evaluation of both MWT and ESS. MWT and ESS were analyzed using a mixed-effect repeated measures (MMRM) model. PGI-C was analyzed using a chi-square test. A fixed hierarchical testing procedure was used to correct for multiplicity, starting with the highest dose of APC for the co-primary endpoints and the key secondary endpoint; testing proceeded with each subsequent lower doses.

[1] = Combined JZP-110, Week 12, mITT

## NC(=O)OC[C@H](N)Cc1ccccc1 [JZP-110, (R)-2-amino-3-phenylpropyl carbamate]
300 mg, Week 1, mITT
  MWT mean sleep latency increase from baseline >=15 minutes, n subjects: 11
  MWT mean sleep latency increase from baseline >=20 minutes, % of subjects: (32.0) %
  MWT mean sleep latency increase from baseline >=20 minutes, n subjects: 8
  MWT mean sleep latency increase from baseline >=25 minutes, % of subjects: (24.0) %
  MWT mean sleep latency increase from baseline >=25 minutes, n subjects: 6
  MWT mean sleep latency increase from baseline >=30 minutes, % of subjects: (20.0) %
  MWT mean sleep latency increase from baseline >=30 minutes, n subjects: 5
300 mg, Week 4, mITT
  MWT mean sleep latency increase from baseline >=5 minutes, % of subjects: (69.2) %
  MWT mean sleep latency increase from baseline >=5 minutes, n subjects: 36
  MWT mean sleep latency increase from baseline >=10 minutes, % of subjects: (53.8) %
  MWT mean sleep latency increase from baseline >=10 minutes, n subjects: 28
  MWT mean sleep latency increase from baseline >=15 minutes, % of subjects: (36.5) %
  MWT mean sleep latency increase from baseline >=15 minutes, n subjects: 19
  MWT mean sleep latency increase from baseline >=20 minutes, % of subjects: (25.0) %
  MWT mean sleep latency increase from baseline >=20 minutes, n subjects: 13
  MWT mean sleep latency increase from baseline >=25 minutes, % of subjects: (17.3) %
  MWT mean sleep latency increase from baseline >=25 minutes, n subjects: 9
  MWT mean sleep latency increase from baseline >=30 minutes, % of subjects: (13.5) %
  MWT mean sleep latency increase from baseline >=30 minutes, n subjects: 7
300 mg, Week 12, mITT
  MWT mean sleep latency increase from baseline >=5 minutes, % of subjects: (60.0) %
  MWT mean sleep latency increase from baseline >=5 minutes, n subjects: 24
  MWT mean sleep latency increase from baseline >=10 minutes, % of subjects: (50.0) %
  MWT mean sleep latency increase from baseline >=10 minutes, n subjects: 20
  MWT mean sleep latency increase from baseline >=15 minutes, % of subjects: (37.5) %
  MWT mean sleep latency increase from baseline >=15 minutes, n subjects: 15
  MWT mean sleep latency increase from baseline >=20 minutes, % of subjects: (27.5) %
  MWT mean sleep latency increase from baseline >=20 minutes, n subjects: 11
  MWT mean sleep latency increase from baseline >=25 minutes, % of subjects: (15.0) %
  MWT mean sleep latency increase from baseline >=25 minutes, n subjects: 6
  MWT mean sleep latency increase from baseline >=30 minutes, % of subjects: (7.5) %
  MWT mean sleep latency increase from baseline >=30 minutes, n subjects: 3
150 and 300 mg, week 12, mITT
  MWT mean sleep latency relative to placebo: significantly increased MWT mean sleep latency relative to placebo
Combined JZP-110, Week 1, mITT
  MWT mean sleep latency increase from baseline >=5 minutes, % of subjects: (53.9) %
  MWT mean sleep latency increase from baseline >=5 minutes, n subjects: 41
  MWT mean sleep latency increase from baseline >=10 minutes, % of subjects: (42.1) %
  MWT mean sleep latency increase from baseline >=10 minutes, n subjects: 32
  MWT mean sleep latency increase from baseline >=15 minutes, % of subjects: (27.6) %
  MWT mean sleep latency increase from baseline >=15 minutes, n subjects: 21
  MWT mean sleep latency increase from baseline >=20 minutes, % of subjects: (17.1) %
  MWT mean sleep latency increase from baseline >=20 minutes, n subjects: 13
  MWT mean sleep latency increase from baseline >=25 minutes, % of subjects: (9.2) %
  MWT mean sleep latency increase from baseline >=25 minutes, n subjects: 7
  MWT mean sleep latency increase from baseline >=30 minutes, % of subjects: (6.6) %
  MWT mean sleep latency increase from baseline >=30 minutes, n subjects: 5
Combined JZP-110, Week 4, mITT
  MWT mean sleep latency increase from baseline >=5 minutes, % of subjects: (57.6) %
  MWT mean sleep latency increase from baseline >=5 minutes, n subjects: 87
  MWT mean sleep latency increase from baseline >=10 minutes, % of subjects: (40.4) %
  MWT mean sleep latency increase from baseline >=10 minutes, n subjects: 61
  MWT mean sleep latency increase from baseline >=15 minutes, % of subjects: (26.5) %
  MWT mean sleep latency increase from baseline >=15 minutes, n subjects: 40
  MWT mean sleep latency increase from baseline >=20 minutes, % of subjects: (15.9) %
  MWT mean sleep latency increase from baseline >=20 minutes, n subjects: 24
  MWT mean sleep latency increase from baseline >=25 minutes, % of subjects: (9.3) %
  MWT mean sleep latency increase from baseline >=25 minutes, n subjects: 14
  MWT mean sleep latency increase from baseline >=30 minutes, % of subjects: (4.6) %
  MWT mean sleep latency increase from baseline >=30 minutes, n subjects: 7
[1]
  MWT mean sleep latency increase from baseline >=5 minutes, % of subjects: (52.9) %
  MWT mean sleep latency increase from baseline >=5 minutes, n subjects: 72
  MWT mean sleep latency increase from baseline >=10 minutes, % of subjects: (39.0) %
  MWT mean sleep latency increase from baseline >=10 minutes, n subjects: 53
  MWT mean sleep latency increase from baseline >=15 minutes, % of subjects: (29.4) %
  MWT mean sleep latency increase from baseline >=15 minutes, n subjects: 40
  MWT mean sleep latency increase from baseline >=20 minutes, % of subjects: (17.6) %
  MWT mean sleep latency increase from baseline >=20 minutes, n subjects: 24
  MWT mean sleep latency increase from baseline >=25 minutes, % of subjects: (8.1) %
  MWT mean sleep latency increase from baseline >=25 minutes, n subjects: 11
  MWT mean sleep latency increase from baseline >=30 minutes, % of subjects: (2.9) %
  MWT mean sleep latency increase from baseline >=30 minutes, n subjects: 4
All doses, as early as week 1
  MWT mean sleep latency, effect at week 1: Statistically significant effects
Over the 12 weeks of the study
  Tolerance to the wake-promoting effects: no apparent tolerance to the wake-promoting effects
